Reference: patent US20230312578A1, “6H-INDOLO[2,3-B]QUINOXALINE DERIVATIVES USEFUL IN THERAPY” (Vironova Medical AB, priority 2020, published 2023)
Read-outs that look alike come from different tables or passages of the source.

Assays:
Format in all cases: cell-based
[1] = system: PC-3; test: Human tumor cell line growth assay (SRB); conditions: Prostate, PC-3, 48 h; for CC50: read-out: LC50 (the source's name)
[2] = Human tumor cell line growth assay (SRB); conditions: human, HCC-2998 cells (colon), HCC-2998, 48 h, read-out: LC50
[3] = system: HCC-2998; test: Human tumor cell line growth assay (SRB); conditions: Homo sapiens; Colon, HCC-2998, 48 h
[4] = Human tumor cell line growth assay (SRB); conditions: human, SNB-19 cells (CNS), SNB-19, 48 h, read-out: LC50
[5] = system: SNB-19; test: Human tumor cell line growth assay (SRB); conditions: Homo sapiens; CNS, SNB-19, 48 h
[6] = system: CCRF-CEM; test: Human tumor cell line growth assay (SRB); conditions: Leukemia, 48 h; for CC50: read-out: LC50 (the source's name)
[7] = system: MCF7; test: Human tumor cell line growth assay (SRB); conditions: Breast, MCF7, 48 h; for CC50: read-out: LC50 (the source's name)
[8] = Human tumor cell line growth assay (SRB); conditions: human, OVCAR-3 cells (ovarian), OVCAR-3, 48 h, read-out: LC50
[9] = system: OVCAR-3; test: Human tumor cell line growth assay (SRB); conditions: Homo sapiens; Ovarian, OVCAR-3, 48 h
[10] = system: HOP-92; test: Human tumor cell line growth assay (SRB); conditions: Homo sapiens; NSCLC, HOP-92, 48 h
[11] = Human tumor cell line growth assay (SRB); conditions: human, HOP-92 cells (NSCLC), HOP-92, 48 h
[12] = Human tumor cell line growth assay (SRB); conditions: human, A549/ATCC cells (NSCLC), read-out: LC50
[13] = system: A549/ATCC; test: Human tumor cell line growth assay (SRB); conditions: Homo sapiens, NSCLC, 48 h
[14] = system: SK-OV-3; test: Human tumor cell line growth assay (SRB); conditions: Ovarian, SK-OV-3, 48 h; for CC50: read-out: LC50 (the source's name)
[15] = Human tumor cell line growth assay (SRB); conditions: human, HCT-116 cells (colon), HCT-116, 48 h, read-out: LC50
[16] = system: HCT-116; test: Human tumor cell line growth assay (SRB); conditions: Homo sapiens; Colon, HCT-116, 48 h
[17] = Human tumor cell line growth assay (SRB); conditions: human, MDA-MB-435 cells (melanoma), MDA-MB-435, 48 h, read-out: LC50
[18] = system: MDA-MB-435; test: Human tumor cell line growth assay (SRB); conditions: Homo sapiens; Melanoma, MDA-MB-435, 48 h
[19] = system: TK-10; test: Human tumor cell line growth assay (SRB); conditions: Renal, TK-10, 48 h; for CC50: read-out: LC50 (the source's name)
[20] = Human tumor cell line growth assay (SRB); conditions: human, MALME-3M cells (melanoma), read-out: LC50
[21] = system: MALME-3M; test: Human tumor cell line growth assay (SRB); conditions: Homo sapiens, Melanoma, 48 h
[22] = Human tumor cell line growth assay (SRB); conditions: human, IGR-OV1 cells (ovarian), IGR-OV1, 48 h, read-out: LC50
[23] = system: IGR-OV1; test: Human tumor cell line growth assay (SRB); conditions: Homo sapiens, IGROV-1; Ovarian, IGR-OV1, 48 h
[24] = system: T-47D; test: Human tumor cell line growth assay (SRB); conditions: T47D, Breast, 48 h; for CC50: read-out: LC50 (the source's name)
[25] = Human tumor cell line growth assay (SRB); conditions: human, SW-620 cells (colon), SW-620, 48 h
[26] = system: SW-620; test: Human tumor cell line growth assay (SRB); conditions: Homo sapiens; Colon, SW-620, 48 h
[27] = system: A498; test: Human tumor cell line growth assay (SRB); conditions: Renal, A498, 48 h; for CC50: read-out: LC50 (the source's name)
[28] = Human tumor cell line growth assay (SRB); conditions: human, U251 cells (CNS), U251, 48 h, read-out: LC50
[29] = system: U251; test: Human tumor cell line growth assay (SRB); conditions: Homo sapiens, U-251; CNS, U251, 48 h
[30] = Human tumor cell line growth assay (SRB); conditions: human, SK-MEL-28 cells (melanoma), SK-MEL-28, 48 h, read-out: LC50
[31] = system: SK-MEL-28; test: Human tumor cell line growth assay (SRB); conditions: Homo sapiens; Melanoma, SK-MEL-28, 48 h
[32] = system: Human tumor cell lines; test: Human tumor cell line growth assay (SRB), summary over the panel; conditions: overall over the panel
[33] = Human tumor cell line growth assay (SRB); conditions: human, SF-268 cells (CNS), SF-268, 48 h
[34] = system: SF-268; test: Human tumor cell line growth assay (SRB); conditions: Homo sapiens; CNS, SF-268, 48 h
[35] = Human tumor cell line growth assay (SRB); conditions: human, NCI-H522 cells (NSCLC), NCI-H522, 48 h
[36] = system: NCI-H522; test: Human tumor cell line growth assay (SRB); conditions: Homo sapiens; NSCLC, NCI-H522, 48 h
[37] = system: ACHN; test: Human tumor cell line growth assay (SRB); conditions: Renal, 48 h; for CC50: read-out: LC50 (the source's name)

For `Cc1cc2nc3c4cc([N+](=O)[O-])ccc4n(CCN(C)C)c3nc2cc1C` [JBA-185, 2-(2,3-dimethyl-9-nitro-6H-indolo[2,3-b]quinoxalin-6-yl)-N,N-dimethylethanamine], the GI50 [1] was 187 nM, the CC50 [1] was > 100 µM and the CC50 at 48 h [2] was 6.53 µM. The GI50 [3] was 756 nM, the CC50 at 48 h [4] was > 100 µM and the GI50 [5] was 493 nM. The GI50 [6] was 642 nM, the CC50 [6] was > 100 µM and the GI50 [7] was 356 nM. For the same compound, the CC50 [7] was > 100 µM, the CC50 at 48 h [8] was > 100 µM and the GI50 [9] was 590 nM. For the same compound, the GI50 [10] was 642 nM, the LC50 at 48 h [11] was > 100 µM and the CC50 at 48 h [12] was 94.4 µM. For the same compound, the GI50 [13] was 387 nM, the GI50 [14] was 704 nM and the CC50 [14] was > 100 µM. For the same compound, the CC50 at 48 h [15] was 94.2 µM, the GI50 [16] was 355 nM and the CC50 at 48 h [17] was 4.5 µM. The GI50 [18] was 541 nM, the GI50 [19] was 371 nM and the CC50 [19] was > 100 µM. For the same compound, the CC50 at 48 h [20] was 5.1 µM, the GI50 [21] was 542 nM and the CC50 at 48 h [22] was > 100 µM. The GI50 [23] was 357 nM, the GI50 [24] was 499 nM and the CC50 [24] was > 100 µM. The LC50 (50% lethal concentration) at 48 h [25] was > 100 µM, the GI50 [26] was 302 nM and the GI50 [27] was 1260 nM. For the same compound, the CC50 [27] was 5.5 µM, the CC50 at 48 h [28] was > 100 µM and the GI50 [29] was 470 nM. The CC50 at 48 h [30] was 5.65 µM, the GI50 [31] was 807 nM and the “cytotoxicity, comparison in words” value [32] was “less cytotoxic than B220”. The “growth inhibition (GI50), comparison in words” value [32] was “lower GI50 compared to B220”, the LC50 (50% lethal concentration) at 48 h [33] was > 100 µM and the GI50 [34] was 793 nM. The LC50 at 48 h [35] was > 100 µM, the GI50 [36] was 595 nM and the GI50 [37] was 316 nM. For the same compound, the CC50 [37] was 2.46 µM.
Compound `Cc1cc2nc3c4cc(N)ccc4n(CCN(C)C)c3nc2cc1C` [JBD-136, 6-(2-(dimethylamino)ethyl)-2,3-dimethyl-6H-indolo [2,3-b]quinoxalin-9-amine] has a GI50 [1] of 1280 nM, a CC50 [1] of 51.9 µM and a CC50 at 48 h [2] of 21.9 µM. For the same compound, the GI50 [3] was 1020 nM, the CC50 at 48 h [4] was > 100 µM and the GI50 [5] was 767 nM. For the same compound, the GI50 [6] was 862 nM, the CC50 [6] was 76.9 µM and the GI50 [7] was 675 nM. The CC50 [7] was 57.5 µM, the CC50 at 48 h [8] was 75.8 µM and the GI50 [9] was 1560 nM. For the same compound, the GI50 [10] was 912 nM, the LC50 at 48 h [11] was > 100 µM and the CC50 at 48 h [12] was > 100 µM. For the same compound, the GI50 [13] was 464 nM, the GI50 [14] was 2230 nM and the CC50 [14] was > 100 µM. It also gave a CC50 at 48 h [15] of 51.4 µM, a GI50 [16] of 369 nM and a CC50 at 48 h [17] of 5.6 µM. For the same compound, the GI50 [18] was 1050 nM, the GI50 [19] was 2260 nM and the CC50 [19] was > 100 µM. The CC50 at 48 h [20] was 7.43 µM, the GI50 [21] was 1270 nM and the CC50 at 48 h [22] was > 100 µM. The GI50 [23] was 596 nM, the GI50 [24] was 2260 nM and the CC50 [24] was > 100 µM. For the same compound, the LC50 (50% lethal concentration) at 48 h [25] was 83.8 µM, the GI50 [26] was 389 nM and the GI50 [27] was 1070 nM. For the same compound, the CC50 [27] was 5.86 µM, the CC50 at 48 h [28] was 54.2 µM and the GI50 [29] was 640 nM. The CC50 at 48 h [30] was 11.4 µM, the GI50 [31] was 2260 nM and the “growth inhibition (GI50), comparison in words” value [32] was “slightly improved growth inhibition and cytotoxicity compared to B220”. The LC50 (50% lethal concentration) at 48 h [33] was 42.7 µM, the GI50 [34] was 1570 nM and the LC50 at 48 h [35] was > 100 µM. For the same compound, the GI50 [36] was 771 nM, the GI50 [37] was 367 nM and the CC50 [37] was 57.3 µM.
